According to ChEMBL document CHEMBL1201862, “PubChem BioAssay data set” (2004):
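Values below derive from 48-hour exposures of cells grown in 96-well plates, with endpoints linearly interpolated between the two concentrations bracketing the appropriate inhibition level. GI50 marks 50% less growth.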 The source made the active and inactive calls. Rule as the data show it: active = GI50 up to about 1.1 µM and inactive = higher.

How the values were obtained:
Test in all cases: DTP human tumour cell line panel, 48 h
MOLT-4 = tested on: MOLT-4
UACC-257 = tested on: UACC-257
SF-295 = tested on: SF-295
SNB-78 = tested on: SNB-78
LOX IMVI = tested on: LOX IMVI
SK-MEL-2 = tested on: SK-MEL-2
SW-620 = tested on: SW-620
U-251 = tested on: U-251
RPMI-8226 = tested on: RPMI-8226
SF-268 = tested on: SF-268
SK-OV-3 = tested on: SK-OV-3
DMS-273 = tested on: DMS-273
IGROV-1 = tested on: IGROV-1
EKVX = tested on: EKVX
OVCAR-8 = tested on: OVCAR-8
M19-MEL = tested on: M19-MEL
HCT-116 = tested on: HCT-116
HOP-18 = tested on: HOP-18
SK-MEL-5 = tested on: SK-MEL-5
SN12C = tested on: SN12C
SF-539 = tested on: SF-539
UACC-62 = tested on: UACC-62
K562 = tested on: K562
HOP-92 = tested on: HOP-92
OVCAR-4 = tested on: OVCAR-4
OVCAR-3 = tested on: OVCAR-3
HOP-62 = tested on: HOP-62
SNB-75 = tested on: SNB-75
CAKI-1 = tested on: CAKI-1
HT-29 = tested on: HT-29
LXFL 529 = tested on: LXFL 529
TK-10 = tested on: TK-10
ACHN = tested on: ACHN
M14 = tested on: M14
UO-31 = tested on: UO-31
RXF 393 = tested on: RXF 393
SNB-19 = tested on: SNB-19
OVCAR-5 = tested on: OVCAR-5
SR = tested on: SR
KM-20L2 = tested on: KM-20L2
NCI-H23 = tested on: NCI-H23
XF498 = tested on: XF498
CCRF-CEM = tested on: CCRF-CEM
A498 = tested on: A498
DLD-1 = tested on: DLD-1
HCC 2998 = tested on: HCC 2998
NCI-H522 = tested on: NCI-H522
A549 = tested on: A549
NCI-H226 = tested on: NCI-H226
NCI-H460 = tested on: NCI-H460
DMS-114 = tested on: DMS-114
HCT-15 = tested on: HCT-15
786-0 = tested on: 786-0
SK-MEL-28 = tested on: SK-MEL-28
HL-60 = tested on: HL-60
KM12 = tested on: KM12
COLO 205 = tested on: COLO 205
Malme-3M = tested on: Malme-3M

O=C1C/C(=C/c2ccc(/C=C3/CC(=O)N(c4cccc(Br)c4)C3=O)cc2)C(=O)N1c1cccc(Br)c1
GI50 (MOLT-4): 54.2 µM (inactive) | GI50 (UACC-257): > 100 µM (inactive) | GI50 (SF-295): 60.7 µM (inactive) | GI50 (SNB-78): 36.2 µM (inactive) | GI50 (LOX IMVI): > 100 µM (inactive) | GI50 (SK-MEL-2): > 100 µM (inactive) | GI50 (SW-620): > 100 µM (inactive) | GI50 (U-251): > 81.7 µM (inactive) | GI50 (RPMI-8226): > 100 µM (inactive) | GI50 (SF-268): > 100 µM (inactive) | GI50 (SK-OV-3): > 100 µM (inactive) | GI50 (DMS-273): > 100 µM (inactive) | GI50 (IGROV-1): > 100 µM (inactive) | GI50 (EKVX): > 100 µM (inactive) | GI50 (OVCAR-8): > 100 µM (inactive) | GI50 (M19-MEL): > 100 µM (inactive) | GI50 (HCT-116): > 100 µM (inactive) | GI50 (HOP-18): > 100 µM (inactive) | GI50 (SK-MEL-5): > 100 µM (inactive) | GI50 (SN12C): > 100 µM (inactive) | GI50 (SF-539): 51.5 µM (inactive) | GI50 (UACC-62): > 100 µM (inactive) | GI50 (K562): > 67 µM (inactive) | GI50 (HOP-92): 50.2 µM (inactive) | GI50 (OVCAR-4): > 100 µM (inactive) | GI50 (OVCAR-3): > 100 µM (inactive) | GI50 (HOP-62): > 100 µM (inactive) | GI50 (SNB-75): 23.5 µM (inactive) | GI50 (CAKI-1): > 100 µM (inactive) | GI50 (HT-29): > 100 µM (inactive) | GI50 (LXFL 529): > 100 µM (inactive) | GI50 (TK-10): > 100 µM (inactive) | GI50 (ACHN): > 100 µM (inactive) | GI50 (M14): > 100 µM (inactive) | GI50 (UO-31): > 100 µM (inactive) | GI50 (RXF 393): 30.1 µM (inactive) | GI50 (SNB-19): > 100 µM (inactive) | GI50 (OVCAR-5): > 100 µM (inactive) | GI50 (SR): 97.3 µM (inactive) | GI50 (KM-20L2): > 100 µM (inactive) | GI50 (NCI-H23): > 100 µM (inactive) | GI50 (XF498): 26.5 µM (inactive) | GI50 (CCRF-CEM): 66.1 µM (inactive) | GI50 (A498): > 71 µM (inactive) | GI50 (DLD-1): > 100 µM (inactive) | GI50 (HCC 2998): > 100 µM (inactive) | GI50 (NCI-H522): > 100 µM (inactive) | GI50 (A549): > 100 µM (inactive) | GI50 (NCI-H226): > 100 µM (inactive) | GI50 (NCI-H460): > 100 µM (inactive) | GI50 (DMS-114): > 100 µM (inactive) | GI50 (HCT-15): > 100 µM | GI50 (786-0): 58.1 µM (inactive) | GI50 (SK-MEL-28): > 100 µM (inactive) | GI50 (HL-60): > 100 µM (inactive) | GI50 (KM12): > 100 µM (inactive) | GI50 (COLO 205): > 100 µM (inactive) | GI50 (Malme-3M): > 100 µM (inactive)
